Data: patent US20050175550A1, “Compositions for oral use” (priority 2000, published 2005)

System: Fusobacterium nucleatum ATCC10953
Test: Minimum growth-inhibiting concentration on agar media (Example 2)
Type: cell-based
Conditions: F. nucleatuium ATCC 10953, anaerobic, 37° C., 48-72 hours
Experimental: 3 ml of GAM broth (Nissui Medical) containing 5 μg/ml of hemin and 1 μg/ml of menadione was separately inoculated with one platinum loop each of subcultures of causative bacteria of periodontal disease, strains Porphyromonas gingivalis W83, W50, ATCC49417 and ATCC33277, strain Actinobacillus actinomycetemcomitans Y4, and strains Fusobacterium nucleatum ATCC10953 and ATCC25586, followed by incubation at 37° C. under anaerobic conditions (10% CO2, 10% H2 and 80% N2) overnight. Then, the resulting cultures were diluted to 10^−8, 10^−6, 10^−4 and 10^−3 to make inoculating bacterial solutions, respectively.
Agar media containing 400, 200, 100, 50, 25, 10 and 5 μg/ml of TFM, respectively, were prepared and streaked, about 2 cm long, with a platinum loop each of the above-prepared inoculating bacterial solutions, followed by incubation under the same anaerobic conditions as above at 37° C. for 48-72 hours to evaluate growth of the bacteria.

`N[C@@H](CCSC(F)(F)F)C(=O)O` [TFM, Trifluoromethionine] was tested, and the Minimum growth-inhibiting concentration was 25 µg/mL.
